Where a name gives a salt, the structure may show the parent alone. Read-outs that look alike come from different tables or passages of the source.
Columns and labels:
[1] = tested on: human mixed lymphocyte reaction; assay: Human Mixed Lymphocyte Reaction Test (MLR); type: cell-based; settings: 144 h
From the text: The human mixed lymphocyte reaction is an in vitro immune response. Inhibition of the human mixed lymphocyte reaction immune response is a standard assay used in the field of immunology, which is considered to be indicative of in vivo immunosuppressive activity. […] The human mixed lymphocyte is also used as a model system for immune reactions involving T-cell-mediated immune responses. Such T-cell-mediated immune responses have been linked to the disease pathology associated with autoimmune diseases, chronic inflammatory diseases, graft versus host disease and organ transplantation rejection.
Blood was obtained by venipuncture from two non-related human donors. Peripheral blood mononuclear cells (PBMC) were isolated from these samples by using the Leuco Prep procedure (Becton-Dickinson). […] Cells from donor A (2×10^5) were incubated with cells from donor B (2×10^5) with or without compound in 96 well round bottom microtiter plates at 37° C., 5% CO2 for 6 days. Eighteen hours prior to harvesting cells from the plates, all wells were pulsed with 1 uCi of tritiated-thymidine. Cells from the plates were washed on day 6 and tritiated-thymidine incorporation was determined using a scintillation counter.

[2] = tested on: contact sensitivity response to 2,4-dinitrofluorobenzene (DNFB); assay: Assay of Contact Sensitivity Response to DNFB in Mice; type: in vivo, Balb/c female mice; settings: oral, 0.25% Methocel; ear swelling 24 hours after DNFB challenge
From the text: Contact sensitivity to 2,4-dinitrofluorobenzene (DNFB) has been extensively studied and characterized in the mouse to determine the regulatory mechanisms involved in cell mediated immune responses (Claman et al., Immunol. Rev. 50:105, 1980; Young and Young, "Cutaneous Models of Inflammation for the Evaluation of Topical and Systemic Pharmacological Agents" in Pharmacological Methods in the Control of Inflammation (Chang and Lewis, Eds.), Alan R. Liss, Inc., New York, pp. 215-231, 1989). This is an antigen-specific T-cell mediated inflammatory response that represents delayed-type hypersensitivity reactions seen in both humans and other mammals. This contact sensitivity animal model is used routinely in many laboratories for pharmacological screening of antiinflammatory agents.
The contact sensitivity model used for this study is an extensively used model system for delayed-type hypersensitivity reactions involving cell-mediated immune responses (T-cell mediated responses), which have been linked to the disease pathology associated with organ transplantation rejection, graft versus host disease, multiple sclerosis, myasthenia gravis, systemic lupus erythematosus, rheumatoid arthritis, and other chronic inflammatory diseases and autoimmune diseases for which the T-cell is pivotal to mounting an immune or autoimmune response.
Balb/c female mice (approximately 20 g, Charles River) were sensitized on the shaved abdomen with 25 uL of 0.5% 2,4-dinitrofluorobenzene (DNFB) (Eastman Kodak Co.) in a vehicle of 4:1 acetone: olive oil on days 0 and 1. Mice were ear challenged with 20 uL of 0.2% DNFB in a vehicle of 4:1 acetone: olive oil on day 5. An identical segment of the ear was measured immediately before challenge and 24 hours later with an engineer's micrometer. Ear swelling was expressed as the difference in ear thickness before and after challenge in units of 10-4 inches±SEM. Percent suppression was calculated as: [formula] Compounds (prepared in 0.25% Methocel®) were administered orally. Control animals received only vehicle (0.25% Methocel®). Negative controls were not sensitized on days 0 and 1 but were ear challenged on day 5. Ten mice are typically used per group.
Contact sensitivity results for representative compounds of the present invention are shown in Table B. In this table, + designates greater than 30% suppression of control ear swelling.

[3] = human MLR, tritiated-thymidine incorporation, 6 days, read-out: IC50

Row | IC50 [1, 3] | SMILES | IC50 ([1]; Homo sapiens) | Contact Sensitivity Activity (suppression of control ear swelling) [2]
1 | – | Cc1ccccc1-c1cccc2c1CCN2c1nc2ccc(F)cc2c(C(=O)O)c1C [Ex. 11, 6-fluoro-3-methyl-2-[4-(2-methylphenyl)-1-indolinyl]-quinoline-4-carboxylicacid, sodium salt] | < 50 nM | –
2 | – | O=C([O-])c1cc(N2CCc3c(-c4cccc(C(F)(F)F)c4)cccc32)nc2ccc(F)cc12.[Na+] [Ex. 6, 6-fluoro-2-[4-(3-trifluoromethylphenyl)-1-indolinyl]-quinoline-4-carboxylicacid, sodium salt] | < 50 nM | + (greater than 30% suppression of control ear swelling)
3 | – | CN(Cc1cnc2nc(N)nc(N)c2n1)c1ccc(C(=O)N[C@@H](CCC(=O)O)C(=O)O)cc1 [methotrexate, reference compound] | < 50 nM | + (greater than 30% suppression of control ear swelling)
4 | – | Cc1c(-c2cn(C)c3c(-c4ccccc4)cccc23)nc2ccc(F)cc2c1C(=O)[O-].[Na+] [Ex. 75, 6-fluoro-3-methyl-2-(7-phenyl-1-methyl-3-indolyl)-quinoline-4-carboxylic acid, sodium salt] | 50 to 10000 nM | + (greater than 30% suppression of control ear swelling)
5 | 50 to 10000 nM | Cc1c(N2CCc3c(-c4ccccc4)cccc32)nc2ccccc2c1C(=O)O [Ex. 4] | – | + (greater than 30% suppression of control ear swelling)
6 | – | Cc1ccccc1-c1cccc2c1CCN2c1cc(C(=O)O)c2cc(F)ccc2n1 [Ex. 8, 6-fluoro-2-[4-(2-methylphenyl)-1-indolinyl]-quinoline-4-carboxylic acid, sodium salt] | < 50 nM | –
7 | – | Cc1c(N2CCc3c(-c4cccc(C(F)(F)F)c4)cccc32)nc2ccc(F)cc2c1C(=O)[O-].[Na+] [Ex. 12, 6-fluoro-3-methyl-2-[4-(3-trifluoromethylphenyl)-1-indolinyl]-quinoline-4-carboxylic acid, sodium salt] | < 50 nM | + (greater than 30% suppression of control ear swelling)
8 | – | Cc1c(N2CCc3c(-c4ccccc4)cccc32)nc2ccc(F)cc2c1C(=O)[O-].[Na+] [Ex. 2, 6-fluoro-3-methyl-2-(4-phenyl-1-indolinyl)quinoline-4-carboxylic acid, sodium salt] | – | + (greater than 30% suppression of control ear swelling)
9 | < 50 nM | COc1ccccc1-c1cccc2c1CCN2c1nc2ccc(F)cc2c(C(=O)O)c1C [Ex. 9, 6-fluoro-[4-(2-methoxyphenyl)-1-indolinyl]-3-methylquinoline-4-carboxylic acid, sodium salt] | – | –
10 | < 50 nM | COc1cccc(-c2cccc3c2CCN3c2nc3ccc(F)cc3c(C(=O)O)c2C)c1 [Ex. 13, 6-fluoro-[4-(3-methoxyphenyl)-1-indolinyl]-3-methylquinoline-4-carboxylic acid, sodium salt] | – | –
11 | – | Cc1c(-n2ccc3c(-c4ccccc4)cccc32)nc2ccc(F)cc2c1C(=O)[O-].[Na+] [Ex. 47, 6-fluoro-3-methyl-2-(4-phenyl-1-indolyl)-quinoline-4-carboxylic acid, sodium salt] | – | + (greater than 30% suppression of control ear swelling)
12 | – | O=C(O)c1cc(N2CCc3c(-c4ccccc4)cccc32)nc2ccc(F)cc12 [Ex. 5, 6-fluoro-2-(4-phenyl-1-indolinyl)-quinoline-4-carboxylic acid, sodium salt] | < 50 nM | –
13 | 50 to 10000 nM | Cc1c(-c2cccc3c(-c4ccccc4)cccc23)nc2ccc(F)cc2c1C(=O)O [Ex. 128, 6-fluoro-3-methyl-2-(5-phenyl-1-naphthyl) quinoline-4-carboxylic acid, sodium salt] | – | –
14 | < 50 nM | O=C(O)c1cc(N2CCc3c(-c4ccccc4F)cccc32)nc2ccc(F)cc12 [Ex. 7] | – | + (greater than 30% suppression of control ear swelling)
15 | – | Cc1c(-c2cn(C)c3c(-c4ccccc4)cccc23)nc2ccc(C(F)(F)F)cc2c1C(=O)O [Ex. 73, 3-methyl-2-(7-phenyl-1-methyl-3-indolyl)-6-trifluoromethylquinoline-4-carboxylic acid, sodium salt] | < 50 nM | –
16 | 50 to 10000 nM | Cc1c(-n2cnc3c(-c4ccccc4)cc(F)cc32)nc2ccc(F)cc2c1C(=O)O [Ex. 68, 6-fluoro-3-methyl-2-(6-fluoro-4-phenyl-1-benzimidazolyl)quinoline-4-carboxylic acid] | – | –
17 | – | Cc1c(N2CCc3c(-c4ccccc4F)cccc32)nc2ccc(F)cc2c1C(=O)[O-].[Na+] [Ex. 10, 6-fluoro-2-[4-(2-fluorophenyl)-1-indolinyl]-3-methylquinoline-4-carboxylic acid, sodium salt] | < 50 nM | + (greater than 30% suppression of control ear swelling)

Row | SMILES | IC50 [1, 3] | IC50 ([1]; Homo sapiens) | Contact Sensitivity Activity (suppression of control ear swelling) [2]
18 | Cc1c(-n2ccc3c(-c4ccccc4)cccc32)nc2ccc(F)cc2c1C(=O)O [Ex. 46] | 50 to 10000 nM | – | + (greater than 30% suppression of control ear swelling)
19 | Cc1c(N2CCc3c(-c4ccccc4)cccc32)nc2ccc(F)cc2c1C(=O)O [Ex. 1, 6-fluoro-3-methyl-2-(4-phenyl-1-indolinyl)quinoline-4-carboxylic acid] | < 50 nM | – | + (greater than 30% suppression of control ear swelling)

— patent US5523408A, “2-carbocyclic and 2-heterocyclic quinoline-4-carboxylic acids and salts thereof useful as immunosuppressive agents” (The Dupont Merck Pharmaceutical Company, priority 1994, dated 1996)
